Read-outs that look alike come from different tables or passages of the source.
Experiments:
[1] = target: N-type calcium channel (α1B (Cav2.2), β3 and α2δ subunits) in stable HEK cell line (Homo sapiens (Human), UniProt Q00975); experiment: Functional assay (FDSS calcium mobilization): antagonism of N-type calcium channel; assay type: cell-based; details: for inhibition at 0.33 µM: HEK293, FDSS, 0.33 μM compound; for IC50: KCl (50 mM) depolarization, six-point concentration-response
Method: A stable cell line (HEK parent) co-expressing the α1B (Cav2.2), β3 and α2δ subunits of the N-type calcium channel subunits was used. These cells were routinely grown as monolayers in low glucose-containing Dulbecco's Modified Eagle Medium supplemented with 10% FBS, 2 mM L-glutamine, 100 I.U./mL penicillin, 100 μg/mL streptomycin, 400 μg/mL G418 and 200 μg/mL Zeocin (split ratio=1:5). Cells were maintained in 5% CO2 at 37° C. Compounds of Formula (I) were prepared as 10 mM stocks in DMSO from neat compound, if available. Otherwise, the 5 or 10 mM DMSO stock solutions provided in-house were used.
Calcium mobilization responses to KCl depolarization were evaluated by measuring the intensity of calcium-mediated fluorescent signal in the presence of BD Calcium Assay Dye (BD Biosciences, Franklin Lakes, N.J., U.S.A.), utilizing a Functional Drug Screening System (FDSS) by Hamamatsu Corporation (Bridgewater, N.J. U.S.A.).
Twenty-four hr prior to assay, cells were seeded in clear-base poly-D-lysine-coated 384-well plates (BD Biosciences) at a density of 5,000 cells per well in culture medium and grown overnight in 5% CO2 at 37° C. On the day of assay, growth media were removed, and cells were loaded with BD calcium assay dye (BD Biosciences) for 35 min at 37° C. under 5% CO2 and then for 25 min at room temp. Utilizing the FDSS, cells were exposed to representative compounds of Formula (I) at varying concentrations, and intracellular calcium was measured for 5 min prior to the addition of 50 mM KCl for an additional 3 min of measurement.
IC50 values for representative compounds of Formula (I) were determined from six-point concentration-response experiments and represent the concentration of said compound required to inhibit 50% of the maximal response. Maximal fluorescence intensity (FI) achieved upon addition of 50 mM KCl was exported from the FDSS software and further analyzed using GraphPad Prism 3.02 (Graph Pad Software Inc., San Diego, Calif., U.S.A.). Data were normalized to the maximum average counts from quadruplicate wells for each condition in the presence of 50 mM KCl and to the minimum average counts in the presence of buffer. Theoretical curves were generated using nonlinear regression curve-fitting analysis of either sigmoidal concentration-response or sigmoidal concentration-response (variable slope), and the IC50 values with the best-fit curve determined by GraphPad Prism were reported.

[2] = target: N-type calcium channel (Homo sapiens (Human), UniProt Q00975); experiment: Automated electrophysiology assay (QPatch-HT whole-cell patch clamp); assay type: cell-based
Method: Cells were grown in T175 flasks to 50%-90% confluence. At the time of use, cells were enzymatically treated with Detachin (Genlantis, San Diego, Calif. USA), centrifuged, rinsed, and resuspended in 293 SFM II media (Life Technologies, Grand Island, N.Y. U.S.A.) supplemented with 25 mM HEPES (Sigma-Aldrich, St. Louis, Mo. U.S.A.) to a concentration of 2-3×10^6 cells/mL. Cells were added to the automated cell preparation station on the QPatch-HT (Sophion Biosciences, North Brunswick, N.J. U.S.A.), and following a 10- to30-min recovery period with gentle stirring, the assay protocol was initiated. During the automated cell preparation, cells were collected, centrifuged and resuspended in an extracellular (EC) solution containing 132 mM NaCl, 1.8 mM CaCl2, 5.4 mM KCl, 0.8 mM MgCl2, 10 mM glucose, and 10 mM HEPES (pH=7.4), adjusted with sucrose to approximately 315 m0sm. The QPlate was primed with an intracellular solution containing 135 mM CsCl, 10 mM EGTA, 4 MgATP, 0.3 NaGTP, and 20 mM HEPES (pH=7.2), adjusted to approximately 290 m0sm with deionized water and the EC solution. Cells were added to the prepared QPlate wells by robotic pipettes of the QPatch-HT.
For cells determined to be in stable whole-cell patch clamp, the EC solution was replaced with a barium (Ba)/triethylammonium (TEA) solution containing 140 mM TEA-Cl, 10 mM BaCl2, 0.8 mM MgCl2, 10 mM glucose and 10 mM HEPES (pH=7.4). High (40 mM) BaCl2 concentrations were made with adjustments to TEA-Cl (90 mM) to maintain the osmolarity. From a resting potential of −80 mV, a train of depolarizing pulses (15 pulses at 5 Hz, +20 mV) was delivered to the cell once every 30 sec for […], and the resulting currents were measured during a control period (no compound). This protocol was repeated for each subsequent addition of control buffer with or without compound (three periods total, each with four trains). The current generated in the 1st and 15th pulses of the last train of each period in the presence of each drug concentration was normalized to the current generated during the control period at the respective pulses (representing low- and high-frequency stimulation, respectively). Data from both the second and third drug application periods were analyzed for each cell. A final addition of Ba/TEA solution containing 60-100 μM CdCl2 was made to block all N-type current and to “zero” the currents for each cell. All buffer/compound additions were made using a “spitting” feature of the QPatch-HT, which added three repetitions of 5 μL solution at the beginning of each recording period.
To examine closed-state inactivation, cells were subjected to a channel-activating 50-msec depolarizing step pulse from −80 to +10 mV, followed by a 5-sec nonactivating step to voltages ranging from −130 to −60 mV in 10 mV increments and then a 50-ms step from −80 to +10 mV to assess the remaining current. Currents from the activating voltage pulse were normalized to the peak value of the test pulse following the −130 mV step and fit to a Boltzman equation to obtain the V1/2. Roscovitine (Sigma-Aldrich) was prepared as a 100 mM stock in dimethyl sulfoxide and diluted to the indicated working concentrations. […]. Compounds of Formula (I) were diluted first into dimethyl sulfoxide and then into 10% pluronic F-127 in water (Life Technologies), sonicated for 1 min and diluted into EC buffer. Vehicle controls were run in parallel in all experiments.
Unless otherwise indicated, statistics for comparing among electrophysiological results utilized a one-way analysis of variance with Fisher's least squares determination test for pair-wise comparison.

[3] = test system: CFA-induced thermal hyperalgesia; experiment: Complete Freund's Adjuvant (CFA)-induced hyperalgesia, radiant heat; assay type: in vivo, Sprague-Dawley rats; details: FIG. 1, numbers not given
[4] = high-frequency stimulation (15th pulse of train, 5 Hz), read-out: QPatch at High Frequency % Inhibition at 0.1 μM
[5] = low-frequency stimulation (1st pulse of train), read-out: QPatch at Low Frequency % Inhibition at 0.1 μM

Chain of N-type calcium channel (α1B (Cav2.2), β3 and α2δ subunits) in stable HEK cell line (Q00975 whole entry): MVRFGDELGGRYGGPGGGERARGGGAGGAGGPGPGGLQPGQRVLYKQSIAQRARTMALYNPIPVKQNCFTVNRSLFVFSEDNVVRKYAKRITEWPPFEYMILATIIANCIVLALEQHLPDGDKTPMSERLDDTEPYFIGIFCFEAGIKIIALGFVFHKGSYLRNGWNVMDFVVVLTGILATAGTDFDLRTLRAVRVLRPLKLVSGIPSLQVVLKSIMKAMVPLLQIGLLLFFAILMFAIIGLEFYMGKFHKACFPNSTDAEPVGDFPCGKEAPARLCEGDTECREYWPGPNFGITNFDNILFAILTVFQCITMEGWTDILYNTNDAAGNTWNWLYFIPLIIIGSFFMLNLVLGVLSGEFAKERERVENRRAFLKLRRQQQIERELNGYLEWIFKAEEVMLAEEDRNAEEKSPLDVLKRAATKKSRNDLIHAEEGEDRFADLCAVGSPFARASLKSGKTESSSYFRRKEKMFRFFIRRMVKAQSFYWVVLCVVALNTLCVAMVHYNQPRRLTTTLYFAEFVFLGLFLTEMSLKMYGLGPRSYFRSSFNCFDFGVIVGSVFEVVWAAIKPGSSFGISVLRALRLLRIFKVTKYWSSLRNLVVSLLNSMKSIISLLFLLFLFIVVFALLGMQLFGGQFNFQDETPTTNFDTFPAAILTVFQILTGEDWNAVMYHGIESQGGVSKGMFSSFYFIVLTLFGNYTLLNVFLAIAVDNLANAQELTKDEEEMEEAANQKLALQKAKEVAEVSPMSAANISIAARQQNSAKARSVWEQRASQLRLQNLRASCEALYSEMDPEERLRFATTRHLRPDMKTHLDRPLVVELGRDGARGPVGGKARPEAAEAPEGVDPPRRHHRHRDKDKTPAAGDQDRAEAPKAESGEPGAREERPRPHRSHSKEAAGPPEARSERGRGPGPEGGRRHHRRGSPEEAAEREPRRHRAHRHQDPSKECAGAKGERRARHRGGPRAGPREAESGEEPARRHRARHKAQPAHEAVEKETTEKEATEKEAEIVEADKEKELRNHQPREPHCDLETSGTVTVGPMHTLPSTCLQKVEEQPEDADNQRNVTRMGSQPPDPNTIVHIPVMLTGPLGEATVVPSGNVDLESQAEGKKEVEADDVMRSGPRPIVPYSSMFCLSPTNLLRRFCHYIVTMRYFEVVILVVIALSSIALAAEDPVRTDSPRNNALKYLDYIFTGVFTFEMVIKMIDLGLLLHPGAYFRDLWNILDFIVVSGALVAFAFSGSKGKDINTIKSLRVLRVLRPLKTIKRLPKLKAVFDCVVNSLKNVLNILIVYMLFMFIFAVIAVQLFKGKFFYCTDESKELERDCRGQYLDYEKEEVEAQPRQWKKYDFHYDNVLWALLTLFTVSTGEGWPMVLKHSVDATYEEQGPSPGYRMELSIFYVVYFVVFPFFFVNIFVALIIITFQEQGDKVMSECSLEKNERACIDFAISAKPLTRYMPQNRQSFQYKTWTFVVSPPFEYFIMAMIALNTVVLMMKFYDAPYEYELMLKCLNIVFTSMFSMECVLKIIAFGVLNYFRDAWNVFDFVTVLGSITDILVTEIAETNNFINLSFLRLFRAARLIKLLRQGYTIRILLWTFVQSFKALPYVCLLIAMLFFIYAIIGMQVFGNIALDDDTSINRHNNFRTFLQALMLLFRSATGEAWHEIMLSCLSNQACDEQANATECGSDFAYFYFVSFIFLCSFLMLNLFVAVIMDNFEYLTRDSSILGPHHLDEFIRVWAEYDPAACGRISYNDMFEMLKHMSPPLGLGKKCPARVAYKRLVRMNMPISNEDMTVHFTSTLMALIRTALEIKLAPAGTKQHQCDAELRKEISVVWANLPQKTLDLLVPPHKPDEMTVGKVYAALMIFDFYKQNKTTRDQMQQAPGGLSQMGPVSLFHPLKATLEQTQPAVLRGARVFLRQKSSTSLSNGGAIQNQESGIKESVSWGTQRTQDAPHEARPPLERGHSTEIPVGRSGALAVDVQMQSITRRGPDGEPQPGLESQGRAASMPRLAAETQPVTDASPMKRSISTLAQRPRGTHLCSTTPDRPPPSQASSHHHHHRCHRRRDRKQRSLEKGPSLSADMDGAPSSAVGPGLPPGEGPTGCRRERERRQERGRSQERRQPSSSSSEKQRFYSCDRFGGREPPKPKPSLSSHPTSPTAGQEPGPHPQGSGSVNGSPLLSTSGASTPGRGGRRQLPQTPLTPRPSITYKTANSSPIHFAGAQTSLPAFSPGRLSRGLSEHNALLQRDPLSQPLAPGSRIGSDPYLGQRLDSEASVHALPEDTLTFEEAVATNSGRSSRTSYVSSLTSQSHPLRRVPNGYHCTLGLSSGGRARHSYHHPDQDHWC
Chain of N-type calcium channel (α1B (Cav2.2), β3 and α2δ subunits) in stable HEK cell line (P54284 whole entry partner): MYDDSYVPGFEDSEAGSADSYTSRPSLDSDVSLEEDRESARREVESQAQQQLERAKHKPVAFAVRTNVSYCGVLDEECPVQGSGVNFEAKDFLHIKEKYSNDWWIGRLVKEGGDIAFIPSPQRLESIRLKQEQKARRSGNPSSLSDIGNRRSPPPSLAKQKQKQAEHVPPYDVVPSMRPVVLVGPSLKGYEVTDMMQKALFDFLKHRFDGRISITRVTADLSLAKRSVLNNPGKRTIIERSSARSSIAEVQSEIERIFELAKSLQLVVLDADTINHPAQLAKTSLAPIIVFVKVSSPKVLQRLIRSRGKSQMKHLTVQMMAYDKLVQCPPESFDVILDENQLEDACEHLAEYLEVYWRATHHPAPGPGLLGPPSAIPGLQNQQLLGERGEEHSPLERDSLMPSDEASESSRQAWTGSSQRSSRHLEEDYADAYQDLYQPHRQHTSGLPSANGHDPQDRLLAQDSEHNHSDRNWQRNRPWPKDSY
Chain of N-type calcium channel (α1B (Cav2.2), β3 and α2δ subunits) in stable HEK cell line (P54289 25-1103 partner): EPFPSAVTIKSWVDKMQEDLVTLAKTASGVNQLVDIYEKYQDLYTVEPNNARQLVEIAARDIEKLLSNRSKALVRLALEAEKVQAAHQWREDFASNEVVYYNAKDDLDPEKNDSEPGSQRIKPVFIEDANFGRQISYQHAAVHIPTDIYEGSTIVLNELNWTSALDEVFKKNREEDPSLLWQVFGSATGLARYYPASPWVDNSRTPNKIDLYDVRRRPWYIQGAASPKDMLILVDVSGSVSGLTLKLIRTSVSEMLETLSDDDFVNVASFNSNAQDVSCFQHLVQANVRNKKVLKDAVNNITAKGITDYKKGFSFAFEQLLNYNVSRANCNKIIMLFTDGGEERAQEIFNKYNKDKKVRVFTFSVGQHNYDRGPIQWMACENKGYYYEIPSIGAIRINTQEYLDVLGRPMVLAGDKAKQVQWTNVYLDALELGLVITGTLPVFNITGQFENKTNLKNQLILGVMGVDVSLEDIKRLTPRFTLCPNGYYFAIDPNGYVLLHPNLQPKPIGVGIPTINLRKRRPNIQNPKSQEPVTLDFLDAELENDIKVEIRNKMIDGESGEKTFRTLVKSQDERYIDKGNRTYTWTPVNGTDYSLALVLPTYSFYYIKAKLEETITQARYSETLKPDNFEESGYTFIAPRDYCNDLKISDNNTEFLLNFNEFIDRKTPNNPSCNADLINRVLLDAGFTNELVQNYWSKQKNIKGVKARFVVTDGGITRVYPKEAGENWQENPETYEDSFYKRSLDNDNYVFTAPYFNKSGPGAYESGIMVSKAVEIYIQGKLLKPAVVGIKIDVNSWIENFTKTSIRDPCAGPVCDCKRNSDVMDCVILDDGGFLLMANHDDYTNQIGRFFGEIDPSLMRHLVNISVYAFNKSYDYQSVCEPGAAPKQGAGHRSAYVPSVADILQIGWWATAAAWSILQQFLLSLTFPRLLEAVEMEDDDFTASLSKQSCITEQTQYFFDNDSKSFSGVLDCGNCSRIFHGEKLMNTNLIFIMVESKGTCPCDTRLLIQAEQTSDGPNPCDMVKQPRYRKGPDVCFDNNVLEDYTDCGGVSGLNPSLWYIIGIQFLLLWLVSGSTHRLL
Chain of N-type calcium channel (Q00975 whole entry): as the sequence (Q00975 whole entry) above
Chain of N-type calcium channel (P54284 whole entry partner): as the sequence (P54284 whole entry partner) above
Chain of N-type calcium channel (P54289 25-1103 partner): as the sequence (P54289 25-1103 partner) above

Structure (SMILES)	inhibition at 0.33 µM [1]	IC50 [1]	inhibition at 0.1 µM [2, 4]	inhibition at 0.1 µM [2, 5]	effect in rat CFA radiant heat model of inflammatory pain [3]
COc1ccccc1-n1nc(OC2CC(C)(C)OC(C)(C)C2)cc1-c1ccc(Cl)cc1 [Compound 23, 5-(4-chlorophenyl)-1-(2-methoxyphenyl)-3-((2,2,6,6-tetramethyltetrahydro-2H-pyran-4-yl)oxy)-1H-pyrazole]	96%	7.6 nM	37%	11%	antihyperalgesic effect
COc1ccccc1-n1nc(OC2CN(S(=O)(=O)c3c(C)noc3C)C2)cc1-c1ccc(Cl)cc1 [Compound 30, 4-[(3-{[5-(4-Chlorophenyl)-1-(2-methoxyphenyl)-1H-pyrazol-3-yl]oxy}azetidin-1-yl)sulfonyl]-3,5-dimethylisoxazole]	93%	8 nM	53%	30%	–
COc1ccccc1-n1nc(OC2CCN(S(=O)(=O)C3CC3)CC2)cc1-c1ccc(Cl)cc1 [Compound 15, 4-{[5-(4-Chlorophenyl)-1-(2-methoxyphenyl)-1H-pyrazol-3-yl]oxy}-1-(cyclopropylsulfonyl)piperidine]	–	9 nM	55%	25%	–
CC(C)Oc1ccccc1-n1nc(OC2CCN(S(C)(=O)=O)CC2)cc1-c1ccc(Cl)cc1 [Compound 20, 4-({5-(4-Chlorophenyl)-1-[2-(1-methylethoxy)phenyl]-1H-pyrazol-3-yl}oxy)-1-(methylsulfonyl)piperidine]	–	21.5 nM	37%	24%	–
COc1ccccc1-n1nc(OC2CN(S(C)(=O)=O)C2)cc1-c1ccc(Cl)cc1 [Compound 26, 5-(4-Chlorophenyl)-1-(2-methoxyphenyl)-3-{[1-(methylsulfonyl)azetidin-3-yl]oxy}-1H-pyrazole]	91%	31 nM	40%	37%	–
COc1ccc(-c2cc(OC3CC(C)(C)OC(C)(C)C3)nn2-c2ccccc2OC)cc1 [Compound 31, 1-(2-Methoxyphenyl)-5-(4-methoxyphenyl)-3-[(2,2,6,6-tetramethyltetrahydro-2H-pyran-4-yl)oxy]-1H-pyrazole]	97%	9.4 nM	44%	28%	–
COc1ccccc1-n1nc(OC2CN(C(=O)N(C)OC)C2)cc1-c1ccc(Cl)cc1 [Compound 29, 3-{[5-(4-Chlorophenyl)-1-(2-methoxyphenyl)-1H-pyrazol-3-yl]oxy}-N-methoxy-N-methylazetidine-1-carboxamide]	94%	14 nM	1%	-24%	–
COc1ccccc1-n1nc(OC2CCN(S(=O)(=O)C(C)C)CC2)cc1-c1ccc(Cl)cc1 [Compound 21, 4-{[5-(4-Chlorophenyl)-1-(2-methoxyphenyl)-1H-pyrazol-3-yl]oxy}-1-[(1-methylethyl)sulfonyl]piperidine]	95%	36 nM	23%	15%	–

Reference: patent US9434693B2, “Substituted pyrazoles as N-type calcium channel blockers” (Janssen Pharmaceutica NV, priority 2012, dated 2016)
